In general, IC50 refers to the concentration that inhibits the measured activity by half. By inhibition is commonly meant the drop in the measured response relative to a control, in per cent. Higher therefore signals a strong effect. Usually Ki stands for the equilibrium dissociation constant of an inhibitor or competing ligand from its target.

The values that follow come from ChEMBL document CHEMBL4433229, “Development of novel macrocyclic small molecules that target CTG trinucleotide repeats” (Bioorg Med Chem, 2019).

Data set [1] in a line: Binding affinity to d(CTG) A-A DNA sequence (unknown origin) assessed as equilibrium dissociation constant by isothermal titration method. (In general: In ITC the heat of successive injections is recorded.)
A short description of data set [2]: Selectivity ratio of cytotoxicity of compound to cytotoxicity of NC for human HeLa cells. Format: cell-based.
The nature of data set [3]: Binding affinity to d(CTG) U-U DNA sequence (unknown origin) assessed as equilibrium dissociation constant by isothermal titration method.
Data set [4] in a line: Binding affinity to d(CTG) C-C DNA sequence (unknown origin) assessed as equilibrium dissociation constant by isothermal titration method. Conditions: for Kd: read-out: Kd(app).
Data set [5] can be described thus: Potency index, ratio of transcription inhibition of NC to transcription inhibition of compounds for d(CTG.CAG)74 DNA sequence by PAGE analysis.
Data set [6] relates to HeLa. Put plainly: Cytotoxicity against human HeLa cells assessed as reduction in cell viability after 72 hrs by SRB assay relative to control. Format: cell-based.
Data set [7] can be described thus: Binding affinity to d(CTG) duplex DNA sequence (unknown origin) assessed as equilibrium dissociation constant by isothermal titration method.
Data set [8] has as its system DNA. Nature of the data set: Inhibition of random DNA sequence (unknown origin) transcription at 50 uM pre-incubated for 3 hrs followed by addition of T7 polymerase and measured after 1.5 hrs by PAGE analysis. Type of data set: nucleic-acid assay.
Data set [9] can be described thus: Binding affinity to d(CTG) T-T DNA sequence (unknown origin) assessed as equilibrium dissociation constant by isothermal titration method. Conditions: read-out: Kd(app).
The nature of data set [10]: Inhibition of d(CTG.CAG)74 DNA sequence (unknown origin) transcription at 25 uM pre-incubated for 3 hrs followed by addition of T7 polymerase and measured after 1.5 hrs by PAGE analysis.
The nature of data set [11]: Selectivity ratio of transcription inhibition of random DNA sequence (unknown origin) to transcription inhibition of d(CTG.CAG)74 DNA sequence (unknown origin) by PAGE analysis.
Data set [12] can be described thus: Displacement of ethidium from d(CTG)2 DNA sequence (unknown origin) and measured by fluorescence method relative to NC.
Data set [13] in a line: Binding affinity to d(CTG) T-T 2 DNA sequence (unknown origin) assessed as equilibrium dissociation constant by isothermal titration method.
The nature of data set [14]: Binding affinity to d(CTG) T-T 3 DNA sequence (unknown origin) assessed as equilibrium dissociation constant by isothermal titration method.
Data set [15] in a line: Binding affinity to d(CTG) T-T DNA sequence (unknown origin) assessed as mole fraction of compound required to show 1:1 stoichiometry for compound-DNA complex at 50 uM by Job's plot analysis.
For data set [16], the system named is DNA. Put plainly: Inhibition of random DNA sequence (unknown origin) transcription at 100 uM pre-incubated for 3 hrs followed by addition of T7 polymerase and measured after 1.5 hrs by PAGE analysis. Format: nucleic-acid assay.
Data set [17] concerns HeLa. Put plainly: Cytotoxicity against human HeLa cells assessed as reduction in cell viability at 25 uM after 72 hrs by SRB assay relative to control. Format: cell-based.
A short description of data set [18]: Binding affinity to d(CTG) T-T DNA sequence (unknown origin) assessed as mole fraction of compound required to show 2:1 stoichiometry for compound-DNA complex at 50 uM by Job's plot analysis.
A short description of data set [19]: Binding affinity to d(CTG) T-T DNA sequence (unknown origin) assessed as mole fraction of compound required to show 1.3:1 stoichiometry for compound-DNA complex at 50 uM by Job's plot analysis.
Data set [20] can be described thus: Inhibition of MBNL1 binding to r(CUG)12 RNA sequence (unknown origin) assessed as inhibition constant by gel electrophoresis mobility shift assay.
Data set [21] can be described thus: Binding affinity to r(CUG)12 RNA sequence (unknown origin) assessed as equilibrium dissociation constant by isothermal titration method.
Data set [22] has as its system HeLa. Nature of the data set: Cytotoxicity against human HeLa cells assessed as reduction in cell viability at 0.2 to 100 uM after 72 hrs by SRB assay relative to control. Type of data set: cell-based. (Sulforhodamine B stains cellular protein and so reports cell mass.)
Data set [23] relates to HeLa. Nature of the data set: Cytotoxicity against human HeLa cells assessed as reduction in cell viability at 6 uM after 72 hrs by SRB assay relative to control. Format: cell-based.
Data set [24] has as its system DNA. Put plainly: Inhibition of random DNA sequence (unknown origin) transcription at 25 uM pre-incubated for 3 hrs followed by addition of T7 polymerase and measured after 1.5 hrs by PAGE analysis. Format: nucleic-acid assay.
A short description of data set [25]: Inhibition of d(CTG.CAG)74 DNA sequence (unknown origin) transcription at 6 uM pre-incubated for 3 hrs followed by addition of T7 polymerase and measured after 1.5 hrs by PAGE analysis.
Data set [26] relates to DNA. Nature of the data set: Inhibition of random DNA sequence (unknown origin) transcription at 0 to 50 uM pre-incubated for 3 hrs followed by addition of T7 polymerase and measured after 1.5 hrs by PAGE analysis. Format: nucleic-acid assay.
A short description of data set [27]: Binding affinity to r(CUG)4 RNA sequence (unknown origin) assessed as equilibrium dissociation constant by isothermal titration method.
The nature of data set [28]: Binding affinity to d(CTG)2 DNA sequence (unknown origin) assessed as equilibrium dissociation constant by isothermal titration method.

SMILES strings stand for the structures. Calls of active or inactive are those of the source. The calls are words filed in the database; no cut-off is given here.

In the case of `Nc1nc2nc(n1)NCCCNc1c3ccccc3nc3c(cccc13)C(=O)NCCCCN2`, the “Kd(app)” value in data set [1], in data set [3] and in data set [7] was “inactive” throughout. The selectivity ratio in data set [2] worked out at 10. Moreover, the Kd in data set [4] worked out at 404 µM; in [9], 34.9 µM. The Selectivity ratio is 4 in data set [5] and 3 in [11]. Moreover, the concentration for half-maximal inhibition (IC50) in data set [6] was over 100 µM. In addition, the inhibition in [8] came out at 45%; in [10] it was 60%.

On to `Nc1nc2nc(n1)NCCCNc1c3ccccc3nc3c(cccc13)C(=O)NCCCN2`, for which the “Kd(app)” value in [1], in [3], in data set [4] and in data set [7] was “inactive” throughout. In data set [2], the selectivity ratio worked out at 10. In addition, the result in data set [12] was Active. The Kd in data set [13] worked out at 19.8 µM; in data set [14], 15.1 µM; in data set [9], 18.1 µM. Besides, the Activity (mole fraction) was 0.5 in [15], 0.68 in data set [18] and 0.57 in data set [19]. Also, the inhibition was 45% in [16] and 60% in data set [10]. In addition, the Activity entry in data set [17] is given as “Non-Toxic”. Moreover, the Selectivity ratio worked out at 4 in data set [5] and 3 in data set [11].

Take `CNC(=O)c1cccc2c(NCCCCNc3nc(N)nc(N)n3)c3ccccc3nc12`: the Kd in data set [3] (read-out: Kd(app)) was determined as 17.9 µM; in data set [4], 159 µM; in data set [7] (read-out: Kd(app)), 69 µM; in data set [9] it was 5.8 µM. The inhibition in data set [8] was determined as 45%; in data set [10], 35%. In addition, the Selectivity ratio in [11] is 3.

Regarding `N=C(NCCCCNc1nc(N)nc(N)n1)c1ccc(C(=N)NCCCCNc2nc(N)nc(N)n2)cc1`, the Ki in data set [20] and in data set [21] was 8 µM each time.

Take `Nc1nc2nc(n1)NCCCNC(=O)c1cccc3c(c4ccccc4nc13)NCCCCN2`: the “Kd(app)” value in data set [1], in [3], in data set [4] and in data set [7] was “inactive” throughout. In data set [2], the selectivity ratio was 10. Also, the results for the Activity result in data set [22] and in [23] were “Toxic” and under 10%, respectively. Besides, the inhibition was under 20% in [16]; -0% in [24]; 45% in [25]; under 10% in data set [26]; 85% in [10]. Besides, in data set [5], the Selectivity ratio worked out at 4. Moreover, the IC50 in data set [6] was 20 µM. In addition, in data set [9], the Kd was found to be 19.8 µM.

With `Nc1nc2nc(n1)NCCCCCNc1c3ccccc3nc3c(cccc13)C(=O)NCCCCCN2`, in [2], the selectivity ratio was 10. Also, the Activity entry in [22] is given as “Toxic”.

As for `Nc1nc2nc(n1)NCCCCNc1c3ccccc3nc3c(cccc13)C(=O)NCCCCN2`, the selectivity ratio in [2] is 10. Further, in data set [22], the Activity result is listed as “Toxic”. The Selectivity ratio in data set [11] is 3.

Turning to `COc1ccc2nc3cc(Cl)ccc3c(NCCCCNc3nc(N)nc(N)n3)c2c1`, the Kd in [27] and in data set [28] was 0.3 to 0.4 µM each time. Moreover, the inhibition constant (Ki) in data set [20] came to 6 µM.
